Source: the supplement of paper PMC10307832

Tests used:
Assay in all cases: relative viability (nuclei count vs DMSO), 5 days (fraction); higher = more cells survive
[1] = system: NCI-H3122
How it was run: (§1)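 Each reported value is a median over duplicate plates. It expresses relative viability: treated-well nuclei count divided by vehicle-well nuclei count. Lung cancer cell lines in 1536-well plates were dosed by pin tool a day after seeding, alone with one drug or with a fixed anchor-drug dose plus five library-drug doses (not always all listed) in √10 steps, and nuclei were counted after 5 days.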

[2] = system: NCI-H596
How it was run: as §1

[3] = system: PC-3 [JPC-3]
How it was run: as §1

[4] = system: HARA
How it was run: as §1

[5] = system: LK-2
How it was run: as §1

[6] = system: NCI-H2228
How it was run: as §1

[7] = system: A-427
How it was run: as §1

[8] = system: SK-MES-1
How it was run: as §1

[9] = system: HOP-62
How it was run: as §1

[10] = system: LXF-289
How it was run: as §1

[11] = system: SW 900
How it was run: as §1

[12] = system: NCI-H522
How it was run: as §1

[13] = system: NCI-H1993
How it was run: as §1

[14] = system: NCI-H322M
How it was run: as §1

[15] = system: EMC-BAC-2
How it was run: as §1

[16] = system: NCI-H1944
How it was run: as §1

[17] = system: NCI-H727
How it was run: as §1

[18] = system: NCI-H2009
How it was run: as §1

[19] = system: NCI-H2170
How it was run: as §1

[20] = system: SW 1573
How it was run: as §1

[21] = system: ABC-1
How it was run: as §1

[22] = system: NCI-H1792
How it was run: as §1

Work on COc1cc2nccc(Oc3ccc(NC(=O)Nc4cc(C)on4)c(Cl)c3)c2cc1OC [Tivozanib] + COc1cccc2cc(-c3nc([C@H]4CC[C@H](C(=O)O)CC4)n4ncnc(N)c34)[nH]c12 [OSI-027] (partner 0.5 µM) yielded a relative viability ([1]; first compound 0.005 µM) of 0.971, a relative viability ([1]; first compound 0.01581 µM) of 0.98 and a relative viability ([1]; first compound 0.05 µM) of 1.05. The relative viability ([1]; first compound 0.1581 µM) was 0.859, the relative viability ([1]; first compound 0.5 µM) was 0.925 and the relative viability ([2]; first compound 0.005 µM) was 0.681. It also gave a relative viability ([2]; first compound 0.01581 µM) of 0.596, a relative viability ([2]; first compound 0.05 µM) of 0.866 and a relative viability ([2]; first compound 0.5 µM) of 0.59. For the same compound, the relative viability ([3]; first compound 0.005 µM) was 0.665, the relative viability ([3]; first compound 0.01581 µM) was 0.722 and the relative viability ([3]; first compound 0.05 µM) was 0.774. The relative viability ([3]; first compound 0.1581 µM) was 0.591, the relative viability ([3]; first compound 0.5 µM) was 0.733 and the relative viability ([4]; first compound 0.005 µM) was 0.549. It also gave a relative viability ([4]; first compound 0.01581 µM) of 0.481, a relative viability ([4]; first compound 0.05 µM) of 0.65 and a relative viability ([4]; first compound 0.1581 µM) of 0.196. The relative viability ([4]; first compound 0.5 µM) was 0.28, the relative viability ([5]; first compound 0.005 µM) was 0.223 and the relative viability ([5]; first compound 0.01581 µM) was 0.196. It also gave a relative viability ([5]; first compound 0.05 µM) of 0.244, a relative viability ([5]; first compound 0.1581 µM) of 0.172 and a relative viability ([5]; first compound 0.5 µM) of 0.194. For the same compound, the relative viability ([6]; first compound 0.005 µM) was 0.492, the relative viability ([6]; first compound 0.01581 µM) was 0.54 and the relative viability ([6]; first compound 0.05 µM) was 0.615. It also gave a relative viability ([6]; first compound 0.1581 µM) of 0.488, a relative viability ([6]; first compound 0.5 µM) of 0.485 and a relative viability ([7]; first compound 0.005 µM) of 0.458. The relative viability ([7]; first compound 0.01581 µM) was 0.492, the relative viability ([7]; first compound 0.05 µM) was 0.552 and the relative viability ([7]; first compound 0.1581 µM) was 0.434. The relative viability ([7]; first compound 0.5 µM) was 0.368, the relative viability ([8]; first compound 0.005 µM) was 0.515 and the relative viability ([8]; first compound 0.01581 µM) was 0.573. It also gave a relative viability ([8]; first compound 0.05 µM) of 0.7, a relative viability ([8]; first compound 0.1581 µM) of 0.515 and a relative viability ([8]; first compound 0.5 µM) of 0.583. For the same compound, the relative viability ([9]; first compound 0.005 µM) was 0.838, the relative viability ([9]; first compound 0.01581 µM) was 0.829 and the relative viability ([9]; first compound 0.05 µM) was 0.798. It also gave a relative viability ([9]; first compound 0.1581 µM) of 0.587, a relative viability ([9]; first compound 0.5 µM) of 0.817 and a relative viability ([10]; first compound 0.005 µM) of 0.812. The relative viability ([10]; first compound 0.01581 µM) was 0.786, the relative viability ([10]; first compound 0.05 µM) was 0.845 and the relative viability ([10]; first compound 0.1581 µM) was 0.638. The relative viability ([10]; first compound 0.5 µM) was 0.618, the relative viability ([11]; first compound 0.005 µM) was 0.556 and the relative viability ([11]; first compound 0.01581 µM) was 0.501. For the same compound, the relative viability ([11]; first compound 0.05 µM) was 0.641, the relative viability ([11]; first compound 0.1581 µM) was 0.301 and the relative viability ([11]; first compound 0.5 µM) was 0.518. The relative viability ([12]; first compound 0.005 µM) was 0.722, the relative viability ([12]; first compound 0.01581 µM) was 0.788 and the relative viability ([12]; first compound 0.05 µM) was 0.783. For the same compound, the relative viability ([12]; first compound 0.1581 µM) was 0.677, the relative viability ([12]; first compound 0.5 µM) was 0.604 and the relative viability ([13]; first compound 0.005 µM) was 0.503. For the same compound, the relative viability ([13]; first compound 0.01581 µM) was 0.534, the relative viability ([13]; first compound 0.05 µM) was 0.543 and the relative viability ([13]; first compound 0.1581 µM) was 0.518. The relative viability ([13]; first compound 0.5 µM) was 0.429, the relative viability ([14]; first compound 0.005 µM) was 0.513 and the relative viability ([14]; first compound 0.01581 µM) was 0.603. For the same compound, the relative viability ([14]; first compound 0.05 µM) was 0.545, the relative viability ([14]; first compound 0.1581 µM) was 0.455 and the relative viability ([14]; first compound 0.5 µM) was 0.461. For the same compound, the relative viability ([15]; first compound 0.005 µM) was 0.372, the relative viability ([15]; first compound 0.01581 µM) was 0.385 and the relative viability ([15]; first compound 0.05 µM) was 0.38. For the same compound, the relative viability ([15]; first compound 0.1581 µM) was 0.279, the relative viability ([15]; first compound 0.5 µM) was 0.334 and the relative viability ([16]; first compound 0.005 µM) was 0.396. For the same compound, the relative viability ([16]; first compound 0.01581 µM) was 0.431, the relative viability ([16]; first compound 0.05 µM) was 0.449 and the relative viability ([16]; first compound 0.1581 µM) was 0.344. The relative viability ([16]; first compound 0.5 µM) was 0.447, the relative viability ([17]; first compound 0.005 µM) was 0.501 and the relative viability ([17]; first compound 0.01581 µM) was 0.799. For the same compound, the relative viability ([17]; first compound 0.05 µM) was 0.688, the relative viability ([17]; first compound 0.1581 µM) was 0.434 and the relative viability ([17]; first compound 0.5 µM) was 0.68. The relative viability ([18]; first compound 0.005 µM) was 0.605, the relative viability ([18]; first compound 0.01581 µM) was 0.689 and the relative viability ([18]; first compound 0.05 µM) was 0.65. For the same compound, the relative viability ([18]; first compound 0.1581 µM) was 0.374, the relative viability ([18]; first compound 0.5 µM) was 0.386 and the relative viability ([19]; first compound 0.005 µM) was 0.633. For the same compound, the relative viability ([19]; first compound 0.01581 µM) was 0.78, the relative viability ([19]; first compound 0.05 µM) was 0.723 and the relative viability ([19]; first compound 0.1581 µM) was 0.464. The relative viability ([19]; first compound 0.5 µM) was 0.661, the relative viability ([20]; first compound 0.005 µM) was 0.575 and the relative viability ([20]; first compound 0.01581 µM) was 0.633. The relative viability ([20]; first compound 0.05 µM) was 0.68, the relative viability ([20]; first compound 0.1581 µM) was 0.366 and the relative viability ([20]; first compound 0.5 µM) was 0.447. The relative viability ([21]; first compound 0.005 µM) was 0.456, the relative viability ([21]; first compound 0.01581 µM) was 0.509 and the relative viability ([21]; first compound 0.05 µM) was 0.462. For the same compound, the relative viability ([21]; first compound 0.1581 µM) was 0.359, the relative viability ([21]; first compound 0.5 µM) was 0.395 and the relative viability ([22]; first compound 0.005 µM) was 0.665. The relative viability ([22]; first compound 0.01581 µM) was 0.633, the relative viability ([22]; first compound 0.05 µM) was 0.68 and the relative viability ([22]; first compound 0.1581 µM) was 0.728. For the same compound, the relative viability ([22]; first compound 0.5 µM) was 0.746.
